Data set [1] deals with mice, spared nerve injury (SNI) model. Description: Ultrasonic vocalisation (USV) recordings at 37 kHz, SNI mice. In kind it is in vivo, mouse. Conditions: for Ultrasonic vocalisations, individual animals (Fig 5E): SNI mice. As to the method:
Time spent in each compartment was […]
compartment was used to define three even groups.
Conditioning (DAY 2-9): Mice were injected s.c. with PBS, morphine (10 mg/kg) (RH Pharmacy, Denmark, Vnr. 475249), or 10 μmol/kg mPD5 immediately before being placed in and confined to the appropriate compartment for 40 min. Drug was paired to the least-preferred compartment, conditioning was alternated so that mice were never placed in the same compartment two days in a row, and the day on which they were exposed to drug was […]
Preference test (DAY 10): Mice were allowed to freely move between the two compartments […]
Ultrasonic vocalisation (USV) recordings.
Mice were left in Med-Associates square behavioral chambers (27 cm x 27 cm) to freely roam around for 60 min, four days in a row. […] On day three, both control and SNI mice were placed directly in the chambers and recorded for 60 min. On day four, control mice were injected s.c. with PBS, and SNI mice were injected with either 10 μmol/kg mPD5 or PBS immediately before being placed in the chambers and recorded for 60 min. The recordings were analyzed using the Avisoft SASLab Pro software (Version 5.02.07, Avisoft Bioacoustics) as described in (12), applying a fast fourier transformation (FFT) (1024 FTT length, 100% frame size, Blackman window, and 87.5% time window overlap). […]
To compare pain-relevant vocalizations, only short and constant USVs of 37 kHz were counted […]
Mice were pretreated with 10 μmol/kg mPD5, 10 mg/kg morphine (RH Pharmacy, Denmark, Vnr. 475249), or PBS 45 min before habituation to observation container (glass cylinder surrounded by mirrors on 2 sides) for 15 min. […] Mice were recorded for three min after i.pl. injection with capsaicin and euthanized the same day. Mice were scored manually for the amount of time spent paw licking within three min after capsaicin administration. […]

A short description of data set [2]: Plasma exposure after repeated s.c. administration (10 + 2 + 2 + 2 + 2 μmol/kg), LC-MS/MS. Format: in vivo, mouse. The note with it: 10µmol/kg repeated.

Structures are written as SMILES. “And” between values parts separate entries of the source, which are not always exact repeats. Identical values can stand only once.

On to `CCCCCCCCCCCCCC(=O)N(CCOCCOCCC(=O)N[C@@H](Cc1c[nH]cn1)C(=O)N[C@@H](Cc1c[nH]c2ccccc12)C(=O)N[C@@H](CC(C)C)C(=O)N[C@@H](CCCCN)C(=O)N[C@H](C(=O)O)C(C)C)CCOCCOCCC(=O)N[C@@H](Cc1c[nH]cn1)C(=O)N[C@@H](Cc1c[nH]c2ccccc12)C(=O)N[C@@H](CC(C)C)C(=O)N[C@@H](CCCCN)C(=O)N[C@H](C(=O)O)C(C)C` [mPD5, myristoyl-NPEG4-(HWLKV)2], for which the “Ultrasonic vocalisations, individual animals (Fig 5E)” value was 4 and 10 and 8 and 9 and 7 and 5 in data set [1] (Baseline); 3 and 8 and 1 and 7 in data set [1] (min 60-120 post injection). The “effect on SNI-induced increase of vocalizations at 37 kHz” value in data set [1] (SNI, female mice, s.c. 10 μmol/kg, to the level of the naive mice) is “fully reversed”. Further, the “Plasma exposure, Fig 7B, individual mice” value in data set [2] was 2068 and 1389 and 1614.

For the origin of these results see paper PMC11530130, “Peripherally restricted PICK1 inhibitor mPD5 ameliorates pain behaviors in murine inflammatory and neuropathic pain models” (JCI Insight, 2024).
